From patent publication US20090253634A1, “Methods and Compositions for the Treatment of Gastrointestinal Disorders” (MICROBIA, INC., priority 2005, published 2009)
Bridge positions count the residues as written; N and C are the ends. Peptide text beside a SMILES is read from it.

Tests used:
[1] = target: T1, intestinal GC-C receptor (Homo sapiens, UniProt P25092); experiment: GC-C receptor activity assay (cyclic GMP) in T84 cells; type: cell-based; conditions: chemically synthesized peptides, cyclic GMP by EIA
T1 construct: monolayers of T84 cells in 24-well plates; host or cells: T84 human colon carcinoma cells
Protocol: The ability of SEQ ID NO:5, SEQ ID NO:4, SEQ ID NO:3, and SEQ ID NO:6 to activate the intestinal GC-C receptor was assessed in an assay employing the T84 human colon carcinoma cell line (American Type Culture Collection (Bethesda, Md.)). For the assays cells were grown to confluency in 24-well culture plates with a 1:1 mixture of Ham's F12 medium and Dulbecco's modified Eagle's medium (DMEM), supplemented with 5% fetal calf serum and were used at between passages 54 and 60.
Briefly, monolayers of T84 cells in 24-well plates were washed twice with 1 ml/well DMEM, then incubated at 37° C. for 10 min with 0.45 ml DMEM containing 1 mM isobutylmethylxanthine (IBMX), a cyclic nucleotide phosphodiesterase inhibitor, Test peptides (50 μl) were then added and incubated for 30 minutes at 37° C. The media was aspirated and the reaction was then terminated by the addition of ice cold 0.5 ml of 0.1N HCl. The samples were held on ice for 20 minutes and then evaporated to dryness using a heat gun or vacuum centrifugation.

[2] = system: gastrointestinal transit; experiment: gastrointestinal transit assay in wild-type and GC-C KO mice; type: in vivo; conditions: oral 100 μg/kg
Protocol: Wild type and GC-C KO mice were fasted overnight and SEQ ID NO: 3 or vehicle alone were orally administered 10 minutes prior to an oral dose of a 10% Activated Carbon/10% Gum Arabic suspension. Animals were sacrificed […] after peptide or vehicle administration.

[3] = oral bioavailability in mice, radioimmunoassay (RIA) detection; set-up: species or system CD-1 mice; conditions: female, CD-1, mouse, in vivo, 8 mg/kg intravenous, read-out: AUCi.v.,(0-4h) (converted)
Protocol: Oral bioavailability was also determined using a radioimmunoassay (RIA) detection method. Female CD-1 mice (Charles River, Wilmington, Mass.) weighing approximately 25g (7-8 weeks old) or female CD rats (Charles River, Wilmington, Mass.) weighing approximately 153 g were included in this study. Monoclonal antibody, 20C1 (Brandwein et al. 1985 Infect Immun. 47:242-246), which recognizes SEQ ID NO:7 and ^125I labeled-SEQ ID NO:7, a labeled tracer, were used in these experiments. The labeled tracer was purified by HPLC using a Waters C-18u Bondapak® column (25 cm) previously equilibrated with 10 mM ammonium acetate pH 5.8. […] Blood was drawn from all dosed animals by retro-orbital eye bleeding at specific intervals and test compound levels were analyzed by radioimmunoassay (RIA). […] Radioactivity was measured in a LS 6500 scintillation counter (Beckman-Coulter). The binding efficiency is defined as the percent radioactivity in the B0 sample compared to the input counts. The percent bound in each sample was calculated by the equation: […]
A standard curve was prepared by plotting % B/B0 as a function of the log SEQ ID NO:3 concentration. […] The area under the curve from T=0 to 4 hours (AUC0-4h) was calculated by the software for both p.o. and i.v. dosed animals. […] Oral Bioavailabilty (F) is calculated using the equation: […]

[4] = system: ligated loops of intestine; experiment: ligated intestinal loop model in rats; type: in vivo, CD rats; conditions: center loop of the rat small intestine; 5 μg
Protocol: The loop was roughly centered and was a length of 1-3 cm. The loops were injected with 100 μl of either SEQ ID NO:3 (5 μg) or vehicle (20 mM Tris, pH 7.5 or Krebs Ringer, 10 mM Glucose, HEPES buffer (KRGH)). Following a recovery time of 90 minutes the loops were excised. Weights were recorded for each loop before and after removal of the fluid contained therein. The length of each loop was also recorded. A weight to length ratio (W/L) for each loop was calculated to determine the effects of SEQ ID NO:3 on secretion.
To determine the effect of SEQ ID NO:3 on cGMP activity, fluid from the loop was collected in ice-cold trichloracetic acid (TCA) and stored at −80° C. for use in an assay to measure cGMP levels in the fluid. Intestinal fluid samples were TCA extracted, and cyclic GMP was measured by EIA according to procedures outlined in the Cayman Chemical Cyclic GMP EIA kit (Cayman Chemical, Ann Arbor, Mich.) to determine cyclic GMP levels in the intestinal fluid of the mouse in the presence of either SEQ ID NO:3 or vehicle.
In the case of the rat, however four loops of intestine were surgically ligated. The first three loops were distributed equally in the small intestine and the fourth loop was located in colon. Loops were 1 to 3 centimeters, and were injected with 200 μL of either SEQ ID NO:3 (5 μg) or vehicle (Krebs Ringer, 10 mM glucose, HEPES buffer (KRGH)).

T1 sequence (P25092 24-1073): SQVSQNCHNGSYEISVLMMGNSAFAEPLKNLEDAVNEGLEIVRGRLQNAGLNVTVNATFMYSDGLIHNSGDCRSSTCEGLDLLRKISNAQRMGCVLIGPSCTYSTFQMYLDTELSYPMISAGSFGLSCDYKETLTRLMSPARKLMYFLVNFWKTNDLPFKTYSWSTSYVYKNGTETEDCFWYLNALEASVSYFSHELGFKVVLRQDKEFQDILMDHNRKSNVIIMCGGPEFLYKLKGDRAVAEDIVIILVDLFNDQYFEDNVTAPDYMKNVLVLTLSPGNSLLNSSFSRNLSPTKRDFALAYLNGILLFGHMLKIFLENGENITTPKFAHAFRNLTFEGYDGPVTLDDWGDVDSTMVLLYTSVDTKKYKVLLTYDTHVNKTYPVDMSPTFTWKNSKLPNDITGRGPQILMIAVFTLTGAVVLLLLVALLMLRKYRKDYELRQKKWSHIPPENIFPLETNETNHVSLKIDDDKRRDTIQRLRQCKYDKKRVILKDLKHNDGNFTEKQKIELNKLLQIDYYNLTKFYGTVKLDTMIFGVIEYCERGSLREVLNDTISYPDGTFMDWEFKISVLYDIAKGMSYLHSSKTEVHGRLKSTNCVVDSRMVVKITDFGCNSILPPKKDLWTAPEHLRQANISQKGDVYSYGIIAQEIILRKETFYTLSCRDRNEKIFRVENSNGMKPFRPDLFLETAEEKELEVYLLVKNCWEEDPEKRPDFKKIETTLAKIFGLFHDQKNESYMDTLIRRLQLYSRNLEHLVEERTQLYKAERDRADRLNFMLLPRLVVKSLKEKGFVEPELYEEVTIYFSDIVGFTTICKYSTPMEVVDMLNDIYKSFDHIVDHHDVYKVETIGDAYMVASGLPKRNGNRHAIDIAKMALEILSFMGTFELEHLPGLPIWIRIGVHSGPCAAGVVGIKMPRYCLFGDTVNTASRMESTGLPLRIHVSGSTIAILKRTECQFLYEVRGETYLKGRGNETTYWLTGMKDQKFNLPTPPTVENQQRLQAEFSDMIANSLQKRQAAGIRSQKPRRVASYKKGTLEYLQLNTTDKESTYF

SMILES: C[C@@H]1NC(=O)[C@@H]2CCCN2C(=O)[C@H](CC(N)=O)NC(=O)[C@@H]2CSSC[C@H](N)C(=O)N[C@H]3CSSC[C@H](NC1=O)C(=O)N[C@@H]([C@@H](C)O)C(=O)NCC(=O)N[C@H](C(=O)N[C@@H](Cc1ccc(O)cc1)C(=O)O)CSSC[C@H](NC(=O)[C@H](Cc1ccc(O)cc1)NC(=O)[C@H](CCC(=O)O)NC3=O)C(=O)N2 [SEQ ID NO:3] (H-CCEYCCNPACTGCY-OH; disulfide 1-6, 2-10, 5-13; N-terminus and C-terminus assumed)
- activity in GC-C receptor activity assay [1]: activity comparable to SEQ ID NO:4
- gastrointestinal transit rate versus vehicle [2]: an increase (p<0.001) in gastrointestinal transit rate
- AUC [3]: 27700 ng·h/mL
- cGMP levels in ligated loop [4]: increases
- secretion in ligated loop [4]: increases
